# Measured values reported in paper PMC7150991 (Viruses, 2020).
# Several values for one entry are separate records, joined by “and”; a condition that tells them apart may be missing. Identical values can stand only once. Like-named read-outs stand apart in the source and are kept apart here.
# Key:
# influenza A virus [1] = experiment: microbe, parasite or virus in culture; format: cell-based; settings: A549, 48 h
# influenza A virus [2] = experiment: microbe, parasite or virus in culture; format: cell-based; settings: MDCK, 48 h
# influenza A virus [3] = experiment: microbe, parasite or virus in culture; format: cell-based; settings: 48 h
# influenza A virus [4] = experiment: microbe, parasite or virus in culture; format: cell-based; settings: 72 h
# A549 cells = experiment: XTT cell viability assay, A549 cells; format: cell-based, human; settings: 48 h
# MDCK cells = experiment: XTT cell viability assay, MDCK cells; format: cell-based, canine; settings: 48 h
# LET1 cells = experiment: XTT cell viability assay, LET1 cells; format: cell-based, mouse; settings: 48 h
# HAE cultures = experiment: Cytotoxicity in HAE cultures; format: cell-based, human; settings: up to 160 µM (0.054 µg/mL)
# ERK1 = experiment: cells; format: cell-based, human
# influenza A virus NP = format: cell-based, human
# influenza virus [5] = settings: MDCK cells, ref Wu et al. [20], cited from earlier work
# influenza virus [6] = settings: cited from earlier work
# H1N1 virus = settings: MDCK cells; ref Cecil et al. [19]; cited from earlier work
smiles,measurement,setting,value
"COc1ccc2cc3[n+](cc2c1OC)CCc1cc2c(cc1-3)OCO2 [BBR, Berberine chloride hydrate]",IC50,influenza A virus [1],17 µM and 6 µg/mL
same,IC50,influenza A virus [2],52 µM and 17 µg/mL
same,IC50,influenza A virus [3],4 µM and 1 µg/mL
same,IC50,influenza A virus [4],16 µM and 5 µg/mL
same,TC50,A549 cells,107 µM
same,TC50,A549 cells; value in brackets,0.036 µg/mL
same,TC50,MDCK cells,1035 µM
same,TC50,MDCK cells; value in brackets,0.350 µg/mL
same,TC50,LET1 cells,521 µM
same,TC50,LET1 cells; value in brackets,0.176 µg/mL
same,cytotoxicity at tested concentrations,HAE cultures,did not observe cytotoxicity
same,inhibition at 20 µM,"ERK1; Homo sapiens, A549, 12 h, read-out: inhibition of ERK1 activation (phospho-ERK1, Western blot)",45%
same,accumulation of influenza A virus NP in nuclear fractions,influenza A virus NP,did not cause significant accumulation
same,decrease of NP signal in cytoplasmatic fraction,influenza A virus NP,about 40 % inhibition
same,increase of viral NP in nuclear fractions compared to untreated infection,influenza A virus NP,~ 3 fold
same,IC50,"influenza virus [5]; conversion of 0.025 µg/mL, read-out: IC50",~67 µM
same,IC50,influenza virus [5],0.025 µg/mL
same,mice mortality,"influenza virus [6]; mice models, reduced from 90%",55%
same,virus titers in the lungs,"influenza virus [6]; mice, day 2 post-infection",decreased
same,inhibition of virus replication,H1N1 virus,No inhibition
"N#CC(=C(/N)Sc1ccccc1N)/C(C#N)=C(/N)Sc1ccccc1N [U0126, reference compound]","inhibition of ERK1 activation (phospho-ERK1, Western blot)",ERK1,76 % inhibition
same,decrease of NP signal in cytoplasmatic fraction,influenza A virus NP,about 40 % inhibition
same,increase of viral NP in nuclear fractions compared to untreated infection,influenza A virus NP,~ 3 fold
